In patent US8389523B2, “Substituted quinoxaline and an agrochemical composition thereof” (Kumiai Chemical Industry Co., Ltd., priority 2007, dated 2013):

Experiments:
Type in all cases: in vivo
Set-up in all cases: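 grade 0 to 5 of growth suppression where 5 is 90% or more and 0 below 10%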
[1] = system: Echinochloa oryzicola Vasing; assay: Herbicidal effects in paddy field soil treatment (Test Example 1); conditions: paddy field soil treatment; 1000 g of the active ingredient per hectare; wettable powder added dropwise on water surface; 21st day after treatment
Protocol: (§1) Test for Herbicidal Effects in Paddy Field Soil Treatment
(§2) A 100-cm^2 plastic pot was filled with paddy field soil. After puddling and leveling, seeds of Echinochloa oryzicola Vasing, Monochoria vaginalis (Burm. f.) Presl var. plantaginea (Roxb.) Solms-Laub., and Scirpus juncoides Roxb. var. ohwianus. T. Koyama were sowed, and the soil was waterlogged to a water depth of 3 cm. On the next day, a wettable powder formulation prepared according to Preparation Example 1 was diluted with water, and was added dropwise on the water surface. The amount of application was an amount equivalent to 1000 g of the active ingredient per hectare. Thereafter, the plants were grown in a greenhouse, and on the 21st day after the treatment, the herbicidal effects were investigated according to the criteria described in Table 138.

[2] = system: Monochoria vaginalis (Burm. f.) Presl var. plantaginea (Roxb.) Solms-Laub.; assay: as above; conditions: paddy field soil treatment; 1000 g of the active ingredient per hectare; wettable powder added dropwise on water surface; 21st day after treatment
Protocol: as §1, §2

[3] = system: Scirpus juncoides Roxb. var. ohwianus. T. Koyama; assay: as above; conditions: paddy field soil treatment; 1000 g of the active ingredient per hectare; wettable powder added dropwise on water surface; 21st day after treatment
Protocol: as §1, §2

[4] = system: Abutilon theophrasti medicus; assay: Herbicidal effects in upland field soil treatment (Test Example 2); conditions: 1000 g active ingredient per hectare, 21st day after treatment, criteria of Table 138
Protocol: (§3) Test Example 2 Test on Herbicidal Effects in Upland Field Soil Treatment A 80-cm^2 plastic pot was filled with upland field soil. Seeds of Abutilon theophrasti medicus and Amaranthus viridis L. were sowed, and soil was covered. A wettable powder formulation prepared according to Preparation Example 1 was diluted with water, and was uniformly sprayed on the soil surface with a small sprayer, in an amount equivalent to 1000 liters per hectare, such that 1000 g of the active ingredient per hectare was applied. Thereafter, the plants were grown in a greenhouse, and on the 21st day after the treatment, the herbicidal effects were investigated according to the criteria described in the Table 138 shown above.

Amaranthus viridis L. = assay: as above; conditions: 1000 g active ingredient per hectare, 21st day after treatment, criteria of Table 138
Protocol: as §3

SMILES | Herbicidal effects index, Echinochloa oryzicola Vasing [1] | Herbicidal effects index, Monochoria vaginalis (Burm. f.) Presl var. plantaginea (Roxb.) Solms-Laub. [2] | Herbicidal effects index, Scirpus juncoides Roxb. var. ohwianus. T. Koyama [3] | herbicidal effect (index) on Abutilon theophrasti medicus [4] | herbicidal effect (index) on Amaranthus viridis L. (Amaranthus viridis L.)
COc1ccc2nc(C(=O)C3=C(O)CCCC3=O)c(=O)n(C)c2c1 [I-238] | 5 | 4 | 5 | 5 | 4
O=C1CCCC(O)=C1C(=O)c1nc2ccccc2n(-c2ccc3ccccc3c2)c1=O [I-264] | 4 | 5 | 5 | 4 | 5
CC(C)(C)c1cc(-n2c(=O)c(C(=O)C3=C(O)CCCC3=O)nc3ccccc32)no1 [I-265] | 4 | 5 | 5 | 4 | 5
O=C1CCCC(O)=C1C(=O)c1nc2ccccc2n(-c2ccc(Cl)nn2)c1=O [I-273] | 5 | 5 | 5 | 5 | 5
CN(C(=O)OC(C)(C)C)n1c(=O)c(C(=O)C2=C(O)CCCC2=O)nc2ccccc21 [I-278] | 4 | 5 | 5 | 5 | 5
COc1ccc(-n2c(=O)c(C(=O)C3=C(O)CCCC3=O)nc3c(F)cccc32)cn1 [I-279] | 4 | 5 | 5 | 5 | 5
CCn1c(=O)c(C(=O)C2=C(O)CCCC2=O)nc2c(Cl)cccc21 [I-363] | 5 | 5 | 5 | 5 | 5
Cc1ccc(-n2c(=O)c(C(=O)C3=C(O)CCCC3=O)nc3ccc(C)cc32)nc1 [I-368] | 4 | 5 | 5 | 5 | 5
COc1ccc(-n2c(=O)c(C(=O)C3=C(O)CCCC3=O)nc3c(Cl)cccc32)cn1 [I-379] | 5 | 5 | 5 | 5 | 5
CC(C)c1cccc(-n2c(=O)c(C(=O)C3=C(O)CCCC3=O)nc3ccccc32)c1 [II-29] | 5 | 5 | 5 | 4 | 5
C=CCOc1ccc(-n2c(=O)c(C(=O)C3=C(O)CCCC3=O)nc3ccccc32)cc1 [II-81] | 5 | 5 | 5 | 5 | 5
COc1ccc(-n2c(=O)c(C(=O)C3=C(O)CCCC3=O)nc3ccccc32)c(F)c1 [II-174] | 5 | 5 | 5 | 4 | 5
COc1ccc(-n2c(=O)c(C(=O)C3=C(O)CCCC3=O)nc3ccccc32)cc1C [II-180] | 5 | 5 | 5 | 4 | 5
COc1ccc(-n2c(=O)c(C(=O)C3=C(O)CCCC3=O)nc3c(F)cccc32)cc1 [II-186, 5-fluoro-3-(2-hydroxy-6-oxo-1-cyclohexenecarbonyl)-1-(4-methoxyphenyl)-quinoxalin-2(1H)-one] | 4 | 5 | 5 | 5 | 5
O=C1CCCC(O)=C1C(=O)c1nc2cccc(Cl)c2n(-c2ccccc2)c1=O [II-193] | 5 | 5 | 5 | 5 | 5
COc1ccc(-n2c(=O)c(C(=O)C3=C(O)CCCC3=O)nc3c(Cl)cccc32)cc1 [II-194, 5-chloro-3-(2-hydroxy-6-oxo-1-cyclohexenecarbonyl)-1-(4-methoxyphenyl)-quinoxalin-2(1H)-one] | 4 | 5 | 5 | 4 | 5
Cc1ccc(-n2c(=O)c(C(=O)C3=C(O)CCCC3=O)nc3ccccc32)cc1Cl [II-216] | 5 | 5 | 5 | 4 | 5
CC1CC(C)C(O)=C(C(=O)c2nc3ccccc3n(-c3ccc4c(c3)OCCO4)c2=O)C1=O (stereo not drawn) [II-229] | 5 | 5 | 5 | 4 | 5
CC1CC(C)(C)C(O)=C(C(=O)c2nc3ccccc3n(-c3ccc4c(c3)OCCO4)c2=O)C1=O (stereo not drawn) [II-230] | 4 | 5 | 5 | 4 | 5
O=C1CCCC(O)=C1C(=O)c1nc2ccccc2n(-c2ccc3c(c2)OCCCO3)c1=O [II-232] | 4 | 5 | 5 | 4 | 5
COc1c(F)cc(-n2c(=O)c(C(=O)C3=C(O)CCCC3=O)nc3c(F)cccc32)cc1F [II-235] | 4 | 5 | 5 | 4 | 5
O=C1CCCC(O)=C1C(=O)c1nc2c(F)cccc2n(-c2ccc3c(c2)OCCO3)c1=O [II-236] | 4 | 5 | 5 | 4 | 5
O=C1CCCC(O)=C1C(=O)c1nc2cc(F)ccc2n(-c2ccc3c(c2)OCCO3)c1=O [II-240] | 4 | 5 | 5 | 5 | 5
COc1ccc(-n2c(=O)c(C(=O)C3=C(O)CCCC3=O)nc3c(C)cccc32)cc1 [II-245] | 5 | 5 | 5 | 5 | 5
